Test results from publication PMC6017792, “Hydrazone Derivatives Enhance Antileishmanial Activity of Thiochroman-4-ones” (Molecules : A Journal of Synthetic Chemistry and Natural …, 2017).

Tests used:
[1] = test system: intracellular amastigotes of L. panamensis; experiment: in vitro antileishmanial activity on intracellular amastigotes (EGFP strain in U-937 cells, flow cytometry); format: cell-based, Leishmania panamensis; conditions: for IS (Index of Selectivity = LC50/EC50): LC50 (U-937) / EC50 (L. panamensis amastigotes); for EC50: intracellular amastigotes of L. panamensis (MHOM/CO/87/UA140-EGFP) in U-937 cells, 72 h, mean ± SD; for antileishmanial activity (in words): 10-50 µM moderately active, > 50 µM low activity
Description: Antileishmanial activity of compounds was determined according to the ability to reduce the infection by L. panamensis parasites, a Leishmania species that is highly prevalent in the Central America and Colombia as causative agent of C.L. For this, the antileishmanial activity was tested on intracellular amastigotes of L. panamensis transfected with the green fluorescent protein gene (MHOM/CO/87/UA140-EGFP strain). […] Plates were incubated at 34 °C and 5% CO2 for 3 h and then cells were washed twice with PBS to eliminate not internalized parasites. […] Cells were washed two times employing PBS, as previously, and after the last wash, the supernatant was discarded and cells were suspended in 500 μL of PBS.
Cells were analyzed by flow cytometry employing a flow cytometer (Cytomics FC 500MPL, Beckman Coulter. Pasadena, CA, USA) reading at 488 nm (exciting) and 525 nm (emitting) over an argon laser and counting 10,000 events. Infected cells were determined according the events for green fluorescence (parasites). All determinations for each compound and standard drug were carried out by triplicate, in two experiments. Infected cells exposed to amphotericin B were used as control for antileishmanial activity (positive control) while infected cells incubated in absence of any compound or drug were used as control for infection (negative control). Nonspecific fluorescence was corrected by subtracting fluorescence of unstained cells. Determinations were done by triplicate in at least two independent experiments.
Antileishmanial activity was determined according reduction of percentage of fluorescent parasites determined according to the median fluorescence intensity (MFI), obtained for each experimental condition by cytometry. The parasite values for each concentration of compound were calculated by Equation (3), where the % of parasites in the control well, corresponds to 100% of parasites:% parasites = (MFI exposed parasites/MFI unexposed parasites) × 100(3)
Results of antileishmanial activities were expressed as the EC50 calculated by Probit method. The compound were classified according to EC50 values using a scale defined by us, based on the hit criteria proposed by Katsuno et al.[25].

[2] = in vitro; conditions: human
Description: (§1) Cells exposed to compounds or standard drug were incubated 72 h at 37 °C and 5% of CO2. Cytotoxic activity of each compound was determined according to the effect on the cell viability by the MTT microenzymatic method in which 3-(4,5-dimethylthiazol-2-yl)-2,5-diphenyltetrazolium bromide is reduced to a purple product named formazan by mitochondrial enzyme succinate dehydrogenase. Thus, 10 μL/well of MTT solution (5 mg/mL) were added to each well of exposed and unexposed cells, and plates were incubated at 37 °C, 5% CO2 during 3 h. The reaction was stopped by adding 100 μL/well of isopropanol with 50% and 10% of sodium dodecyl sulfate. The concentration of formazan was determined spectrophotometrically at 570 nm (Varioskan Flash Multimode Reader, Thermo Scientific, Waltham, MA, USA) and intensity of color (absorbance) was registered as O.D. Cells exposed to amphotericin B were used as control for toxicity (positive control) while cell incubated in absence of any compound or drug were used as control for viability (negative control). Non-specific absorbance was corrected by subtracting absorbance (O.D.) of the blank. Determinations were done by triplicate in at least two independent experiments.
(§2) Cytotoxicity was determined according to viability and mortality percentages obtained for each experimental condition (synthetized compounds, amphotericin B and culture medium). […] Initially, viability percentages were calculated by Equation (1), where the O.D. of control well, corresponds to 100% of viability:% viability = (O.D. exposed cells/O.D. unexposed cells) × 100(1)

[3] = test system: human monocytes (U-937 ATCC CRL-1593.2); experiment: in vitro; conditions: for CC50: read-out: LC50, U-937 cells, 72 h, MTT, mean ± SD
Description: as §1, §2

| SMILES | IS (Index of Selectivity = LC50/EC50) [1] | EC50 ([1]; Leishmania panamensis) [µM] | CC50 at 72 h [2] [µM] | antileishmanial activity (in words) ([1]; […]) | EC50 [1] [µM] | CC50 [3] [µM] | antileishmanial activity (in words) ([1]; scale b56: EC50 < 10 µM highly active) | cytotoxic activity (in words) ([3]; scale b53: LC50 < 100 µM high toxicity, 100-200 µM moderate, > 200 µM potential nontoxicity) |
| --- | --- | --- | --- | --- | --- | --- | --- | --- |
| O=C(N/N=C1\CCSc2ccccc21)c1ccccc1 [Compound 6, (E)-N′-(Thiochroman-4-ylidene)benzohydrazide] | 3.9 | 63.7 ± 9.2 | 248 ± 49.6 |  |  |  |  |  |
| CC1C/C(=N\NC(=O)c2ccccc2)c2cc(F)ccc2S1 (stereo not shown) [Compound 16, (E)-N′-(6-Fluoro-2-methylthiochroman-4-ylidene)benzohydrazide] |  | 43.9 ± 4.5 | > 636 |  |  |  |  |  |
| CC1CC(=O)c2ccccc2S1 (stereo not shown) [Compound 3, 2-Methylthiochroman-4-one] | 1.4 | 445 ± 7.3 | 604 ± 86.4 |  |  |  |  |  |
| CC1C/C(=N\NC(=O)c2ccccc2)c2ccccc2S1 (stereo not shown) [Compound 13, (E)-N′-(2-Methylthiochroman-4-ylidene)benzohydrazide] | 3.9 | 38.1 ± 16.2 | 150 ± 24.3 |  |  |  |  |  |
| CC1C/C(=N\NC(=O)c2ccc(N)cc2)c2cc(F)ccc2S1 (stereo not shown) [Compound 18, (E)-4-Amino-N′-(6-fluoro-2-methylthiochroman-4-ylidene)benzohydrazide] | 0.2 | 161 ± 2.4 | 31 ± 7 |  |  |  |  |  |
| O=C(N/N=C1\CCSc2ccc(F)cc21)c1ccccc1 [Compound 10, (E)-N′-(6-Fluorothiochroman-4-ylidene)benzohydrazide] | >17.6 | 37.3 ± 3.3 | > 666 |  |  |  |  |  |
| CC1CC(=O)c2cc(F)ccc2S1 (stereo not shown) [Compound 4, 6-Fluoro-2-methylthiochroman-4-one] | 1.4 | 422 ± 9.2 | 579 ± 59.1 |  |  |  |  |  |
| O=C(N/N=C1\CCSc2ccc(F)cc21)c1ccncc1 [Compound 11, (E)-N′-(6-Fluorothiochroman-4-ylidene)isonicotinohydrazide] | >16.6 | 39.9 ± 5.3 | > 664 |  |  |  |  |  |
| O=C1CCSc2ccc(F)cc21 [Compound 2, 6-Fluorothiochroman-4-one] | <6.5 | > 110 | > 706 |  |  |  |  |  |
| NNC(N)=S [thiosemicarbazide, reference compound] |  |  |  | inactive | > 267 | > 1000 |  |  |
| CC1C/C(=N\NC(=O)c2ccncc2)c2ccccc2S1 (stereo not shown) [Compound 14, (E)-N′-(2-Methylthiochroman-4-ylidene)isonicotinohydrazide] | >11.9 | 56.6 ± 0.7 | > 672 |  |  |  |  |  |
| O=C1CC(c2ccccc2)Sc2ccccc21 (stereo not shown) [Compound 5, 2-Phenylthiochroman-4-one] | >0.9 | 44.1 ± 0.9 | > 41.6 |  |  |  | moderate antileishmanial activity | high cytotoxic activity |
| Nc1ccc(C(=O)N/N=C2\CCSc3ccc(F)cc32)cc1 [Compound 12, (E)-4-Amino-N′-(6-fluorothiochroman-4-ylidene)benzohydrazide] | >6.6 | 95.5 ± 6.9 | > 634 |  |  |  |  |  |
| O=C(N/N=C1\CC(c2ccccc2)Sc2ccccc21)c1ccccc1 (stereo not shown) [Compound 21, (E)-N′-(2-Phenylthiochroman-4-ylidene)benzohydrazide] |  | 28.5 ± 2.8 | 529 ± 7 |  |  |  |  |  |
| O=C(N/N=C1\CCSc2ccccc21)c1ccncc1 [Compound 7, (E)-N′-(Thiochroman-4-ylidene)isonicotinohydrazide] | >12.4 | 56.8 ± 4.54 | 706 |  |  |  |  |  |
| C[C@@H]1[C@H](O)[C@@H](C)/C=C/C=C/C=C/C=C/C=C/C=C/C=C/[C@H](O[C@@H]2O[C@H](C)[C@@H](O)[C@H](N)[C@@H]2O)C[C@@H]2O[C@](O)(C[C@@H](O)C[C@@H](O)[C@H](O)CC[C@@H](O)C[C@@H](O)CC(=O)O[C@H]1C)C[C@H](O)[C@H]2C(=O)O [Amphotericin B, reference compound] |  | 0.32 | 39.6 ± 8.7 |  |  |  |  |  |
| O=C1CCSc2ccccc21 [Compound 1, thiocroman-4-one] |  |  |  |  | 344 ± 75.6 | > 1000 |  |  |
| NC(=O)N/N=C1\CC(c2ccccc2)Sc2ccccc21 (stereo not shown) [Compound 19, (E)-2-(2-Phenylthiochroman-4-ylidene)hydrazinecarboxamide] | 18.6 | 5.4 ± 1 | 100 ± 19.8 |  |  |  |  |  |
| NC(=O)N/N=C1\CCSc2ccccc21 [Compound 8, (E)-2-(Thiochroman-4-ylidene)hydrazinecarboxamide] | 7.0 | 91.5 ± 33.4 | 637 ± 37.9 |  |  |  |  |  |
| CC1C/C(=N\NC(=O)c2ccc(N)cc2)c2ccccc2S1 (stereo not shown) [Compound 15, (E)-4-Amino-N′-(2-methylthiochroman-4-ylidene)benzohydrazide] | 1.1 | 91.8 ± 13.5 | 102 ± 15.1 |  |  |  |  |  |
| CC1C/C(=N\NC(=O)c2ccncc2)c2cc(F)ccc2S1 (stereo not shown) [Compound 17, (E)-N′-(6-Fluoro-2-methylthiochroman-4-ylidene)isonicotinohydrazide] | 2.1 | 98.9 ± 19.3 | 203 ± 25.4 |  |  |  |  |  |
| O=C(N/N=C1\CC(c2ccccc2)Sc2ccccc21)c1ccncc1 (stereo not shown) [Compound 22, (E)-N′-(2-Phenylthiochroman-4-ylidene)isonicotinohydrazide] | >33.9 | 16.4 ± 3.6 | > 556 |  |  |  |  |  |
| NC(=S)N/N=C1\CC(c2ccccc2)Sc2ccccc21 (stereo not shown) [Compound 20, (E)-2-(2-Phenylthiochroman-4-ylidene)hydrazinecarbothioamide] | 9.8 | 5.1 ± 1.3 | 50.1 ± 4.1 |  |  |  |  |  |
